Laboratory results reported in article PMC10244465, “Native American ataxia medicines rescue ataxia-linked mutant potassium channel activity via binding to the voltage sensing domain” (Nature Communications, 2023).
Like-named read-outs stand apart in the source and are kept apart here.

Columns and labels:
wild-type human Kv1.1 = target: T1, wild-type human Kv1.1 (Homo sapiens, UniProt Q09470); test: Two-electrode voltage clamp of oocytes expressing wild-type Kv1.1; format: cell-based; conditions: for effect on Kv1.1 activity: compound 100 µM; for EM (unclamped oocyte membrane potential) / Slope / V0.5 Normalized tail current: in presence of 100 µM compound
T1 construct: expressed in transfected cells; host or cells: Xenopus laevis oocytes injected with cRNA (pTLNx vector)
Source text: Wild-type and mutant Kv1 cDNAs were generated (Genscript, Piscataway, NJ) in the pTLNx expression vector. As previously described, we generated cRNA transcripts encoding human Kv1.1 (wild-type and mutant) and Kv1.2, by in vitro transcription using the mMessage mMachine kit (Thermo Fisher Scientific), after vector linearization, from cDNA sub-cloned into plasmids (pTLNx) incorporating Xenopus laevis β-globin 5’ and 3’ UTRs flanking the coding region to enhance translation and cRNA stability. We injected defolliculated stage V and VI Xenopus laevis oocytes (Xenoocyte, Dexter, MI, US) with Kv1 cRNAs (1–5 ng). We incubated the oocytes at 16 °C in ND96 oocyte storage solution containing penicillin and streptomycin, with daily washing, for 2 days prior to two-electrode voltage-clamp (TEVC) recording.
We performed TEVC at room temperature using an OC-725C amplifier (Warner Instruments, Hamden, CT) and pClamp10 software (Molecular Devices, Sunnyvale, CA) 2 days after cRNA injection as described in the section above. For recording, oocytes we placed in a small-volume oocyte bath (Warner) and viewed with a dissection microscope. We sourced chemicals from Sigma. We studied effects of plant extracts and of compounds, solubilized directly in bath solution (in mM): 96 NaCl, 4 KCl, 1 MgCl2, 1 CaCl2, 10 HEPES (pH 7.6). We introduced extracts or compounds into the oocyte recording bath by gravity perfusion at a constant flow of 1 ml per minute for 3 min prior to recording. Pipettes were of 1–2 MΩ resistance when filled with 3 M KCl. We recorded currents in response to voltage pulses between −80 mV and +40 mV at 10 or 20 mV intervals from a holding potential of −80 mV, to yield current-voltage relationships and examine activation kinetics. To calculate the voltage dependence of activation (V0.5), tail currents were recorded at a voltage pulse of −50 mV immediately following prepulse voltages between −80 mV and +40 mV. We analyzed data using Clampfit (Molecular Devices) and Graphpad Prism software (GraphPad, San Diego, CA, USA), stating values as mean ± SEM. We plotted raw or normalized tail currents vs. prepulse voltage and fitted with a single Boltzmann function:1 g=(A1−A2)/1+exp[V1/2−V/Vs]y+A2 where g is the normalized tail conductance, A1 is the initial value at -∞, A2 is the final value at +∞, V1/2 is the half-maximal voltage of activation and Vs the slope factor.

[1] = design: method as in earlier work; conditions: following massage with lavender oil; cited from earlier work
wild-type human Kv1.2 = target: T2, wild-type human Kv1.2 (Homo sapiens, UniProt P16389); test: Two-electrode voltage clamp of oocytes expressing wild-type Kv1.2; format: cell-based
T2 construct: expressed in transfected cells; host or cells: Xenopus laevis oocytes injected with cRNA (pTLNx vector)
Procedure: We therefore first tested for activity of extracts (diluted 1:50 in bath solution to equal 5 mg plant solid starting material per ml) of each of the three plants on wild-type human Kv1.1 and closely related Kv1.2 expressed in Xenopus laevis oocytes, using manual two-electrode voltage clamp (TEVC). Strikingly, all three extracts altered Kv1 channel activity. […] Pacific ninebark (roots or leaves) had similar effects on Kv1.1 but negligible effects on Kv1.2.
We purchased live Urtica dioica (Common Nettle) from Crimson Sage Nursery (Orleans, CA, USA), cultivated it in Irvine CA, collected the aerial portions (primarily leaves) and then froze them until the day of extraction. We purchased Physocarpus capitatus (Pacific ninebark) live whole plant from Ozark Wildflower Company (Jasper, AR, USA) and separated the roots and aerial parts before extraction of each. We homogenized plant samples using a bead mill with porcelain beads in batches in 50 ml tubes (Omni International, Kennesaw, GA, United States). We purchased certified organic tree bark powders from Mountain Rose Herbs (Eugene, OR, USA) and dry raw Sophora japonica (fine pellets) from Teriya (People’s Republic of China). We purchased bladderwrack kelp extract capsules from Terra Vita (Brampton, Ontario, Canada) and discarded the outer capsule before extraction. We resuspended all plant powders and homogenates in 80% methanol/20% water (100 ml per 5 g solid) and then incubated for 48 h at room temperature, occasionally inverting the bottles to resuspend the extracts. We next filtered the extracts through Whatman filter paper #1 (Whatman, Maidstone, UK), and then removed the methanol using evaporation in a fume hood for 24–48 h at room temperature. We next centrifuged extracts for 10 min at 15 °C, 4000 RCF to remove the remaining particulate matter, followed by storage at −20 °C. On the day of electrophysiological recording, we thawed the extracts and diluted them 1:50 in bath solution (see below), to equal 5 mg plant solid starting material per ml, immediately before use.
Wild-type and mutant Kv1 cDNAs were generated (Genscript, Piscataway, NJ) in the pTLNx expression vector. […]
(§1) We performed TEVC at room temperature using an OC-725C amplifier (Warner Instruments, Hamden, CT) and pClamp10 software (Molecular Devices, Sunnyvale, CA) 2 days after cRNA injection as described in the section above. […] We recorded currents in response to voltage pulses between −80 mV and +40 mV at 10 or 20 mV intervals from a holding potential of −80 mV, to yield current-voltage relationships and examine activation kinetics. To calculate the voltage dependence of activation (V0.5), tail currents were recorded at a voltage pulse of −50 mV immediately following prepulse voltages between −80 mV and +40 mV. […]

Kv1.1-E283K channels = target: T3, Kv1.1-E283K channels (Homo sapiens, UniProt Q09470, E283K); test: TEVC of oocytes injected with 100% Kv1.1-E283K cRNA; format: cell-based; conditions: compound 1 µM
T3 construct: expressed in transfected cells; host or cells: Xenopus laevis oocytes

Kv1.1-L328V channels = target: T4, Kv1.1-L328V channels (Homo sapiens, UniProt Q09470, L328V); test: TEVC of oocytes expressing 100% Kv1.1-L328V; format: cell-based; conditions: compound 1 µM
T4 construct: expressed in transfected cells; host or cells: Xenopus laevis oocytes
Source text: (§2) EA1 mutant G311D is in the S4-5 linker of Kv1.1 (Fig. 5a) and produces a 65% prepulse current reduction both in Kv1.1-G311D and in Kv1.1/Kv1.1-G311D channels[43],[44]; either channel type was minimally responsive to the plant extracts tested (Supplementary Figs. 3 and 4). EA1 mutant L328V (which is associated with tetany and hypomagnesemia) is located in the intracellular end of Kv1.1 S5 (Fig. 5a) and results in complete current loss in a dominant negative manner, i.e., Kv1.1-L328V and Kv1.1/Kv1.1-L328V channels are each nonfunctional. The traditional ataxia remedy plant extracts were unable to rescue Kv1.1-L328V or Kv1.1/Kv1.1-L328V function (Supplementary Figs. 5 and 6). EA1 mutant V408A is in the intracellular-proximal end of Kv1.1 S6 (Fig. 5a) and reduces current, speeds deactivation, and increases C-type inactivation of Kv1.1[46]. Here, Native American ataxia remedy extracts had relatively minor effects on Kv1.1-V408A activity, with nettle and Pacific ninebark (roots or leaves) inducing hyperpolarizing shifts in EM, and Pacific ninebark leaves inducing a negative shift in the voltage dependence of activation, although this was not quantifiable due to the very small tail currents (Supplementary Fig. 7). Effects of the extracts on Kv1.1/Kv1.1-V408A activity were also relatively minor (Supplementary Fig. 8). […]
as §1, with “mV. We analyzed data using Clampfit (Molecular Devices) and Graphpad Prism software (GraphPad, San Diego, CA, USA), stating values as mean ± SEM.” for “mV.”

Kv1.1-V408A channels = target: T5, Kv1.1-V408A channels (Homo sapiens, UniProt Q09470, V408A); test: TEVC of oocytes expressing 100% Kv1.1-V408A; format: cell-based; conditions: compound 1 µM
T5 construct: expressed in transfected cells; host or cells: Xenopus laevis oocytes
Source text: as §2
as §1, with “mV. We analyzed data using Clampfit (Molecular Devices) and Graphpad Prism software (GraphPad, San Diego, CA, USA), stating values as mean ± SEM.” for “mV.”

wild-type Kv1.1 = tested on: wild-type Kv1.1; design: method as in PMID 28391996; conditions: prepulse current at −50 mV, 10 µM; cited from earlier work
[2] = dose response, Fig. 4, read-out: EC50 for ΔV0.5activation

T1 sequence (Q09470 whole entry): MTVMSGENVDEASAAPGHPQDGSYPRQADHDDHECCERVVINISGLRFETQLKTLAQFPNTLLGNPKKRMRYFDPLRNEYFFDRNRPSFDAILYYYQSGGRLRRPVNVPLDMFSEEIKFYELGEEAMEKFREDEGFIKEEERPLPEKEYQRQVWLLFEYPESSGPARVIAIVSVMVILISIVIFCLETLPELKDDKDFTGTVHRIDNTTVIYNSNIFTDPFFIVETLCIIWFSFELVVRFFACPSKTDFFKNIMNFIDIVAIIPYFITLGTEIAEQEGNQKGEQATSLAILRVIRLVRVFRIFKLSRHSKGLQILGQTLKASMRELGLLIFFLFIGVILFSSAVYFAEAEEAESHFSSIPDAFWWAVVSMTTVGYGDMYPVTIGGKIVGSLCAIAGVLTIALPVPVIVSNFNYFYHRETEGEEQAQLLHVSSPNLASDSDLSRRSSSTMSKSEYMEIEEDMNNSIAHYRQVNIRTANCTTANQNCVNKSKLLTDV
T2 sequence (P16389 whole entry): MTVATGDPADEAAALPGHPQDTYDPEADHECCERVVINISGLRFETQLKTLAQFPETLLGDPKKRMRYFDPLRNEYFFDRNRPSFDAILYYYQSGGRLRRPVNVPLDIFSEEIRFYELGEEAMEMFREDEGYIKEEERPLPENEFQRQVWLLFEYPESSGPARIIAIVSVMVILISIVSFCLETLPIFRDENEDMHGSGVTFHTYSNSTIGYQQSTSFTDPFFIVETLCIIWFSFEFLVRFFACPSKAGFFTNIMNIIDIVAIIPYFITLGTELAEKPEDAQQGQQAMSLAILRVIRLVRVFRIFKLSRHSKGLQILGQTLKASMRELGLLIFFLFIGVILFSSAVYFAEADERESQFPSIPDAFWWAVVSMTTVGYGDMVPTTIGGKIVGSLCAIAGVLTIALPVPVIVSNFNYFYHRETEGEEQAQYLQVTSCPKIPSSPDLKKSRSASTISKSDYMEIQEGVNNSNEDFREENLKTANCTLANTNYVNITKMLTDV
T3 sequence (Q09470 whole entry E283K): as the sequence (Q09470 whole entry) above, with E283K counted along it
T5 sequence (Q09470 whole entry V408A): as the sequence (Q09470 whole entry) above, with V408A counted along it
T4 sequence (Q09470 whole entry L328V): as the sequence (Q09470 whole entry) above, with L328V counted along it

Row | Structure (SMILES) | effect on Kv1.1 activity (wild-type human Kv1.1) | EM (unclamped oocyte membrane potential) (wild-type human Kv1.1) [mV] | Slope (wild-type human Kv1.1) [mV] | V0.5 Normalized tail current (wild-type human Kv1.1) [mV] | further results
1 | O=c1c(O)c(-c2ccc(O)cc2)oc2cc(O)cc(O)c12 [kaempferol] | did not alter Kv1.1 activity | -45.25 ± 1.83 | 8.68 ± 0.87 | -22.40 ± 0.84 | 
2 | C=CC(C)(CCC=C(C)C)OC(C)=O (stereo not shown) [linalyl acetate] |  |  |  |  | time to peak levels in the blood [1]: under 20 min
3 | O=c1cccc2n1C[C@@H]1CNC[C@H]2C1 [cytisine] | did not alter Kv1.1 activity | -41.60 ± 1.77 | 8.15 ± 1.31 | -23.96 ± 1.37 | 
4 | C[C@@H]1O[C@@H](OC[C@H]2O[C@@H](Oc3c(-c4ccc(O)c(O)c4)oc4cc(O)cc(O)c4c3=O)[C@H](O)[C@@H](O)[C@@H]2O)[C@H](O)[C@H](O)[C@H]1O [rutin] | lesser but still robust opening effect | -56.75 ± 0.28 | 11.79 ± 2.88 | -31.59 ± 3.22 | EC50 (wild-type human Kv1.1; [2]): 385 ± 12 nM; EC50 (wild-type human Kv1.1; oocytes expressing wild-type Kv1.1, read-out: EC50 for hyperpolarization of EM): 150 ± 38 nM; EC50 (wild-type human Kv1.2; [2]): 72 ± 16 nM; EC50 (wild-type human Kv1.2; oocytes expressing Kv1.2, read-out: EC50 for hyperpolarization of EM): 406 ± 62 nM; effect on channel activity (Kv1.1-E283K channels): ineffective; effect on channel activity (Kv1.1-L328V channels): ineffective; effect on channel activity (Kv1.1-V408A channels): ineffective
5 | O=C1CCC[C@@H]2[C@H]3CCC[N+]4([O-])CCC[C@@H](CN12)[C@@H]34 (stereo partly shown) [oxymatrine] | no effect | -39.88 ± 2.34 | 8.73 ± 0.24 | -21.86 ± 0.64 | 
6 | O.Oc1cc(O)c2c(c1)O[C@H](c1ccc(O)c(O)c1)[C@@H](O)C2 [catechin hydrate] | did not alter Kv1.1 activity | -31.33 ± 2.31 | 5.83 ± 0.38 | -14.70 ± 0.44 | 
7 | O=c1c(O)c(-c2ccc(O)c(O)c2)oc2cc(O)cc(O)c12 [quercetin] | did not alter Kv1.1 activity | -43.50 ± 1.46 | 6.00 ± 1.06 | -25.12 ± 1.81 | 
8 | C=C[C@@]1(C)C=C2CC[C@@H]3[C@](C)(CCC[C@@]3(C)C(=O)O)[C@H]2CC1 [Pimaric acid] |  |  |  |  | increase of wild-type Kv1.1 currents (wild-type Kv1.1): up to eightfold
9 | C=CC(C)(O)CCC=C(C)C (stereo not shown) [linalool] |  |  |  |  | time to peak levels in the blood [1]: under 20 min
